Results on 3 compounds are retold here after ChEMBL document CHEMBL1155869, “Red light-activated phosphorothioate oligodeoxyribonucleotides” (Bioorg Med Chem Lett, 2008).

Experiment [1] can be described thus: Binding affinity to complementary RNA.
Experiment [2] can be described thus: Binding affinity to complementary DNA.

Activity calls are given as the source filed them. The rule behind the calls is not given here.

As for `Cc1cn([C@H]2C[C@H](OP(=O)(O)OC[C@H]3O[C@@H](n4ccc(N)nc4=O)[C@H](O)[C@@H]3OP(=O)(O)OC[C@H]3O[C@@H](n4cnc5c(=O)[nH]c(N)nc54)[C@H](O)[C@@H]3OP(=O)(O)OC[C@H]3O[C@@H](n4cnc5c(N)ncnc54)[C@H](O)[C@@H]3OP(=O)(O)OC[C@H]3O[C@@H](n4cnc5c(=O)[nH]c(N)nc54)[C@H](O)[C@@H]3OP(=O)(O)OC[C@H]3O[C@@H](n4ccc(N)nc4=O)[C@H](O)[C@@H]3OP(=O)(O)OC[C@H]3O[C@@H](n4cnc5c(=O)[nH]c(N)nc54)[C@H](O)[C@@H]3OP(=O)(O)OC[C@H]3O[C@@H](n4cc(C)c(=O)[nH]c4=O)C[C@@H]3OP(=O)(O)OC[C@H]3O[C@@H](n4cc(C)c(=O)[nH]c4=O)C[C@@H]3OP(=O)(O)OC[C@H]3O[C@@H](n4ccc(N)nc4=O)[C@H](O)[C@@H]3OP(=O)(O)OC[C@H]3O[C@@H](n4cc(C)c(=O)[nH]c4=O)C[C@@H]3OP(=O)(O)OC[C@H]3O[C@@H](n4ccc(N)nc4=O)[C@H](O)[C@@H]3OCCCS/C=C\SCCCOP(OC[C@H]3O[C@@H](n4cnc5c(N)ncnc54)[C@H](O)[C@@H]3OP(=O)(O)OC[C@H]3O[C@@H](n4ccc(N)nc4=O)[C@H](O)[C@@H]3OP(=O)(O)OC[C@H]3O[C@@H](n4cnc5c(=O)[nH]c(N)nc54)[C@H](O)[C@@H]3OP(=O)(O)OC[C@H]3O[C@@H](n4ccc(N)nc4=O)[C@H](O)[C@@H]3OP(=O)(O)OC[C@H]3O[C@@H](n4cc(C)c(=O)[nH]c4=O)C[C@@H]3OP(=O)(O)OC[C@H]3O[C@@H](n4ccc(N)nc4=O)[C@H](O)[C@@H]3OP(=O)(O)OC[C@H]3O[C@@H](n4cnc5c(=O)[nH]c(N)nc54)[C@H](O)[C@@H]3OP(=O)(O)OC[C@H]3O[C@@H](n4cnc5c(N)ncnc54)[C@H](O)[C@@H]3O)N(C(C)C)C(C)C)[C@@H](CO)O2)c(=O)[nH]c1=O` (stereo partly specified), the result in experiment [1] and in experiment [2] was inactive.
As for `Cc1cn([C@H]2C[C@H](OP(=O)(O)OC[C@H]3O[C@@H](n4ccc(N)nc4=O)[C@H](O)[C@@H]3OP(=O)(O)OC[C@H]3O[C@@H](n4cnc5c(=O)[nH]c(N)nc54)[C@H](O)[C@@H]3OP(=O)(O)OC[C@H]3O[C@@H](n4cnc5c(N)ncnc54)[C@H](O)[C@@H]3O)[C@@H](COP(=O)(O)O[C@H]3[C@@H](O)[C@H](n4ccc(N)nc4=O)O[C@@H]3COP(=O)(O)O[C@H]3[C@@H](O)[C@H](n4cnc5c(=O)[nH]c(N)nc54)O[C@@H]3COP(=O)(O)O[C@H]3[C@@H](O)[C@H](n4ccc(N)nc4=O)O[C@@H]3COP(=O)(O)O[C@H]3[C@@H](O)[C@H](n4cnc5c(N)ncnc54)O[C@@H]3CO)O2)c(=O)[nH]c1=O`, the outcome in experiment [1] and in experiment [2] was Active.
On to `Cc1cn([C@H]2C[C@H](OP(=O)(O)OC[C@H]3O[C@@H](n4ccc(N)nc4=O)[C@H](O)[C@@H]3OP(=O)(O)OC[C@H]3O[C@@H](n4cnc5c(=O)[nH]c(N)nc54)[C@H](O)[C@@H]3OP(=O)(O)OC[C@H]3O[C@@H](n4cnc5c(N)ncnc54)[C@H](O)[C@@H]3OP(=O)(O)OC[C@H]3O[C@@H](n4cnc5c(=O)[nH]c(N)nc54)[C@H](O)[C@@H]3OP(=O)(O)OC[C@H]3O[C@@H](n4ccc(N)nc4=O)[C@H](O)[C@@H]3OP(=O)(O)OC[C@H]3O[C@@H](n4cnc5c(=O)[nH]c(N)nc54)[C@H](O)[C@@H]3OP(=O)(O)OC[C@H]3O[C@@H](n4cc(C)c(=O)[nH]c4=O)C[C@@H]3OP(=O)(O)OC[C@H]3O[C@@H](n4cc(C)c(=O)[nH]c4=O)C[C@@H]3OP(=O)(O)OC[C@H]3O[C@@H](n4ccc(N)nc4=O)[C@H](O)[C@@H]3OP(=O)(O)OC[C@H]3O[C@@H](n4cc(C)c(=O)[nH]c4=O)C[C@@H]3OP(=O)(O)OC[C@H]3O[C@@H](n4ccc(N)nc4=O)[C@H](O)[C@@H]3O)[C@@H](CO)O2)c(=O)[nH]c1=O`, for which the outcome in experiment [1] and in experiment [2] was Active.
